Where two headings read alike, the source gives them in different places.
Legend:
KOR [1] = molecular target: T1, KOR (Homo sapiens, UniProt P41145); assay: [35S]GTPγS binding functional agonist assay on membranes of CHO cells expressing hKOR (reference agonist U69593); assay type: biochemical; set-up: expressed in transfected cells; host or cells: CHO cells, stably transfected; crude membrane fractions; conditions: for KOR agonist (average percent efficacy relative to cognate agonist): test compound at 10 micromolar, N=4, reference agonist = 100%, CHO-cell line expressing hKOR; for Emax: read-out: Emax values relative to U69593; for Emax values relative to U69593: [35S]GTPγS data-fit top relative to reference agonist U69593
Procedure: The compounds prepared herein were tested for bioactivity with opioid receptors. Agonist assays: Data represent the percent efficacy (relative to cognate agonist) of the test compound at 10 micromolar. The response to a saturating concentration of a reference antagonist or to vehicle (usually none or negligible) is set to 0%. […] The response inhibition elicited by a saturating concentration of reference antagonist is set to 100%; the response inhibition (usually none or negligible) elicited by vehicle is set to 0%. The following tables provide data related to the bioactivity for opioid receptors of the compounds described herein.
Table 6 provides data that represent the average percent efficacy (N=4; relative to cognate agonist) of the test compound at 10 micromolar concentration. The response to a saturating concentration of cognate/reference agonist is set to 100%; the response to a saturating concentration of a reference antagonist or to vehicle (usually none or negligible) is set to 0%. All functional assays are performed on stably transfected CHO-cell lines expressing hKOR, hMOR or hDOR.
(§1) Serial dilutions of the test and reference compounds are made in binding buffer at 2× assay concentration (final assay concentrations ranging from 0.1 nM to 10 μM). Crude membrane fractions (1.8 to 3.5 cm2/well) (prepared from 10-cm plates by harvesting PBS-rinsed monolayers, resuspending and lysing in chilled, hypotonic 50 mM Tris-HCl, pH 7.4, centrifuging at 20,000×g, decanting the supernatant and storing at −80 degrees centigrade; typically, one 10-cm plate provides sufficient material for 24 wells) are resuspended in 1.2 ml of assay buffer containing 20 μM GDP, wheat germ agglutinin (WGA)-coated scintillation proximity beads (2.4 mg), and [35S]GTPγS (300 pM final). The suspension is then added (50 μl/well) to 50 μl of the 2× test or reference compounds (each concentration assayed in triplicate) in flexible transparent PET 96-well plates. The reaction plate is sealed and incubated for 90 min at room temperature, then centrifuged for 5 min at 216×g, and finally loaded into a Wallac MicroBeta TriLux counter. Non-specific [35S]GTPγS binding is assessed at the maximum concentration of reference agonist in the presence of 10 μM antagonist. The background signal is measured at 10 μM reference agonist in the presence of 10 μM unlabeled GTPγS. Raw data (dpm) representing total [35S]GTPγS binding (i.e., specific+non-specific binding) are calculated as a percentage of the maximum response by the reference agonist (in this case U69593).
as §1, with “GTPγS.” for “GTPγS. Raw data (dpm) representing total [35S]GTPγS binding (i.e., specific+non-specific binding) are calculated as a percentage of the maximum response by the reference agonist (in this case U69593).”

KOR [2] = molecular target: T1, KOR; assay: Opioid secondary binding, KOR (Tables 4, 5, 8, 9)
MOR = MOR (Homo sapiens, UniProt P35372); assay: Opioid secondary binding, MOR (Tables 4, 5, 8)
DOR = DOR (Homo sapiens, UniProt P41143); assay: Opioid secondary binding, DOR (Table 4); conditions: Opioid secondary binding activity for Formula 10 analogs
[3] = Opioid secondary binding activity for Formula 10 analogs, read-out: KOR, Ki
[4] = Opioid secondary binding activity for Formula 10 analogs, read-out: MOR, Ki

Sequence of DOR (P41143 whole entry): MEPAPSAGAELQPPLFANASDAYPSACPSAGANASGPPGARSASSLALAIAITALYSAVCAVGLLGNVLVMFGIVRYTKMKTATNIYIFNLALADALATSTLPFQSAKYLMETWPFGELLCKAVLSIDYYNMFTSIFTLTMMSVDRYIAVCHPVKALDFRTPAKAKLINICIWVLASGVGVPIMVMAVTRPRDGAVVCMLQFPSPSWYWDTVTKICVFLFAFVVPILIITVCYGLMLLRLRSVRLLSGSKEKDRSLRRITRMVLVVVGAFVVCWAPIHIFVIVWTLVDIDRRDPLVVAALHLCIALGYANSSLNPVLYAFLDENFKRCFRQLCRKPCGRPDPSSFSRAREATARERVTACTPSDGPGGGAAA
T1 sequence (P41145 whole entry): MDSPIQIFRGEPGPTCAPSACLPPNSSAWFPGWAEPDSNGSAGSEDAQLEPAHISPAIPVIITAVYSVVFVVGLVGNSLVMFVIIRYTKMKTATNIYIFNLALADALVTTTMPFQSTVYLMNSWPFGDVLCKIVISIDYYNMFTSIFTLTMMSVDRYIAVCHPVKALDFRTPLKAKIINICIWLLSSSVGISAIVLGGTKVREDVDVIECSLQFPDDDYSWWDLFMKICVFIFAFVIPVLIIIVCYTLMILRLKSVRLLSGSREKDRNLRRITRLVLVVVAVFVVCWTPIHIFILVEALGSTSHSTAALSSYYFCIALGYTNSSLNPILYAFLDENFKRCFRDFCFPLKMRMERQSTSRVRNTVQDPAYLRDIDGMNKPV
Sequence of MOR (P35372 whole entry): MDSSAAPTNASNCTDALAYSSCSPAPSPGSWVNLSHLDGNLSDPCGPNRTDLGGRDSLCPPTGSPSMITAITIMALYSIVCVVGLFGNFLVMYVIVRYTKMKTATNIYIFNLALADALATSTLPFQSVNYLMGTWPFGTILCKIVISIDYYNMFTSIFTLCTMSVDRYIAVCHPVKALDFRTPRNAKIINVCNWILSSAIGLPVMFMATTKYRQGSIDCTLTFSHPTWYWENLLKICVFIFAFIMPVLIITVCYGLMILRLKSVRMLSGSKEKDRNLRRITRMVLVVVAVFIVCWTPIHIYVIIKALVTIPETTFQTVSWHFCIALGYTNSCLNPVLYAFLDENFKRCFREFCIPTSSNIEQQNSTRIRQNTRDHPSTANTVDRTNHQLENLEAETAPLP

SMILES | KOR agonist (average percent efficacy relative to cognate agonist) (KOR [1]) [%] | Ki (KOR [2]; [3]) [nM] | Ki (MOR; [4]) [nM] | other results
COc1ccc(NC(=O)[C@@H]2CC=C[C@@H]3CCN(Cc4ccc(Cl)c(Cl)c4)C(=O)[C@@H]32)cc1 (racemic) [compound 8947] | 17.3 | 2560 | 3490 | –
O=C(Nc1ccccc1)[C@@H]1CC=C[C@@H]2CCN(C3CCCCC3)C(=O)[C@@H]21 (racemic) [compound 8939] | 133.7 | 71 | – | Ki (DOR): 8940 nM
O=C(Nc1ccc(Cl)c(C(F)(F)F)c1)[C@H]1CC=C[C@H]2CCN(Cc3ccccc3)C(=O)[C@@H]12 [compound 11790] | – | – | – | Emax (KOR [1]): 78%; Ki (KOR [2]): 3.2 nM; Ki (MOR): 208 nM
O=C(Nc1ccc(Br)c(C(F)(F)F)c1)[C@H]1CC=C[C@H]2CCN(Cc3ccccc3)C(=O)[C@@H]12 [11869*] | – | 16.5 | 648 | Emax (KOR [1]): 68%
O=C(Nc1cc(C(F)(F)F)ccc1Cl)C1CC=CC2CCN(CCc3ccccc3)C(=O)C21 (racemic) [compound 11849] | – | 1820 | 2410 | –
O=C(NCCc1ccccc1)[C@@H]1CC=C[C@@H]2CCN(Cc3ccc(Cl)c(Cl)c3)C(=O)[C@@H]21 (racemic) [compound 5084] | – | 4800 | 5190 | –
O=C(OCc1ccccc1)C(Cc1ccccc1)NC(=O)C1CC=CC2CCN(Cc3ccc(Cl)cc3)C(=O)C21 (mixture of isomers) [compound 11813] | – | 1160 | 1910 | –
O=C(Nc1ccc(F)c(F)c1)[C@@H]1CC=C[C@@H]2CCN(Cc3ccc(Cl)c(Cl)c3)C(=O)[C@@H]21 (racemic) [compound 5085] | – | 2960 | 4660 | –
O=C(Nc1ccc(Br)c(C(F)(F)F)c1)[C@@H]1CC=C[C@@H]2CCN(c3ccccc3)C(=O)[C@@H]21 (racemic) [compound 11863] | – | 12 | – | Emax values relative to U69593 (KOR [1]): 95%
O=C(NCc1cccnc1)[C@@H]1CC=C[C@@H]2CCN(C3CCCCC3)C(=O)[C@@H]21 (racemic) [compound 8931] | 67.7 | 552 | – | –
COc1ccc(CN2CC[C@H]3C=CC[C@@H](C(=O)Nc4ccc(Cl)c(C(F)(F)F)c4)[C@H]3C2=O)cc1OC (racemic) [compound 8958] | – | – | 2540 | –
O=C(Nc1ccccc1)[C@H]1CC=C[C@H]2CCN(Cc3ccccc3)C(=O)[C@@H]12 [compound 11794] | – | 137 | 1660 | –
O=C(NCc1ccc(Cl)c(C(F)(F)F)c1)[C@@H]1CC=C[C@@H]2CCN(c3ccccc3)C(=O)[C@@H]21 (racemic) [compound 11862] | – | 98 | – | Emax values relative to U69593 (KOR [1]): 81%
O=C(Nc1ccc(Cl)c(C(F)(F)F)c1)[C@@H]1CC=C[C@H]2CCN(Cc3ccccc3)C(=O)[C@H]21 [compound 11795] | – | – | 5420 | Ki (KOR [2]): 158 nM
COc1ccc(NC(=O)[C@@H]2CC=C[C@@H]3CCN(C4CCCCC4)C(=O)[C@@H]32)cc1 (racemic) [compound 8945] | 54.3 | 1790 | – | Ki (DOR): 5670 nM
O=C(NCc1ccc(Cl)c(C(F)(F)F)c1)[C@@H]1CC=C[C@@H]2CCN(CCc3ccccc3)C(=O)[C@@H]21 (racemic) [compound 11874] | – | 319 | 1240 | –
O=C(Nc1ccc(Cl)c(C(F)(F)F)c1)[C@@H]1CC=C[C@@H]2CCN(Cc3ccccc3)C(=O)[C@@H]21 [compound 11789] | – | – | – | Ki (KOR [2]): 132 nM; Ki (MOR): 3480 nM

SMILES | KOR agonist (average percent efficacy relative to cognate agonist) (KOR [1]) [%] | Ki (KOR [2]; [3]) [nM] | Ki (MOR; [4]) [nM] | other results
CCCCNC(=O)[C@@H]1CC=C[C@@H]2CCN(CCCC)C(=O)[C@@H]21 (racemic) [compound 8919] | 40.3 | 2810 | – | –
COc1ccc(CN2CC[C@H]3C=CC[C@@H](C(=O)Nc4ccc(Cl)cc4Cl)[C@H]3C2=O)cc1OC (racemic) [compound 8952] | −2.6 | – | 5660 | –
CCCCN1CC[C@H]2C=CC[C@@H](C(=O)Nc3ccc(Cl)cc3Cl)[C@H]2C1=O (racemic) [compound 8950] | 72.9 | 1140 | – | –
Cc1cc(NC(=O)[C@@H]2CC=C[C@@H]3CCN(c4ccccc4)C(=O)[C@@H]32)ccc1Cl (racemic) [compound 11866] | – | 33.5 | – | Emax values relative to U69593 (KOR [1]): 123%
O=C(NCc1ccc(Cl)c(C(F)(F)F)c1)[C@@H]1CC=C[C@@H]2CCN(Cc3ccccc3)C(=O)[C@@H]21 (racemic) [compound 11868] | – | 455 | 2160 | –
O=C(Nc1ccc(Cl)c(C(F)(F)F)c1)[C@@H]1CC=C[C@@H]2CCN(c3ccccc3)C(=O)[C@@H]21 (racemic) [compound 10825] | – | 100 | – | Emax values relative to U69593 (KOR [1]): 82%
CCCCN1CC[C@H]2C=CC[C@@H](C(=O)Nc3ccccc3)[C@H]2C1=O (racemic) [compound 8940] | 112.1 | 677 | – | Ki (DOR): 6110 nM
COc1ccc(CNC(=O)[C@@H]2CC=C[C@@H]3CCN(Cc4ccccc4)C(=O)[C@@H]32)cc1 (racemic) [compound 8924] | 18.8 | 3730 | – | –
COc1ccc(CNC(=O)[C@@H]2CC=C[C@@H]3CCN(C4CCCCC4)C(=O)[C@@H]32)cc1 (racemic) [compound 8926] | 29 | 2690 | – | –
O=C(NC1CCCCC1)[C@@H]1CC=C[C@@H]2CCN(Cc3ccccc3)C(=O)[C@@H]21 (racemic) [compound 8920, 2-Benzyl-N-cyclohexyl-1-oxo-1,2,3,4,4a,7,8,8a-octahydroisoquinoline-8-carboxamide] | 94.2 | 298 | – | –
O=C(Nc1ccc(Br)c(C(F)(F)F)c1)[C@@H]1CC=C[C@@H]2CCN(CCc3ccccc3)C(=O)[C@@H]21 (racemic) [compound 11875] | – | 2280 | 1180 | –
O=C([C@@H]1CC=C[C@@H]2CCN(C3CCCCC3)C(=O)[C@@H]21)N1CCOCC1 (racemic) [compound 8910] | 42.7 | 2950 | – | –
O=C(Nc1ccc(Cl)c(C(F)(F)F)c1)C1CCCC2CCN(Cc3ccccc3)C(=O)C21 (racemic) [compound 11478] | – | 51 | 1750 | –
O=C(Nc1ccc(Cl)c(C(F)(F)F)c1)[C@@H]1CC=C[C@@H]2CCN(C3CCCCC3)C(=O)[C@@H]21 (racemic) [compound 8955] | 93.2 | 111 | – | –
Cc1cc(NC(=O)[C@@H]2CC=C[C@@H]3CCN(CCc4ccccc4)C(=O)[C@@H]32)ccc1Cl (racemic) [compound 11878] | – | 4120 | 1670 | –
COc1ccc(NC(=O)[C@@H]2CC=C[C@@H]3CCN(Cc4ccccc4)C(=O)[C@@H]32)cc1 (racemic) [compound 8943] | 72.9 | 883 | – | –
O=C(Nc1cc(C(F)(F)F)ccc1Cl)C1CC=CC2CCN(C3CCCCC3)C(=O)C21 (racemic) [compound 11837] | – | 94 | – | Emax values relative to U69593 (KOR [1]): 106%; Ki (DOR): 8020 nM
